Test results from US20090298834A1, “4-(AMINOMETHYL)CYCLOHEXANAMINE DERIVATIVES AS CALCIUM CHANNEL BLOCKERS” (priority 2008, published 2009).
pIC50: −log10 of the molar value.

Key:
[1] = target: T1, human α1G T-type channels (Homo sapiens, UniProt O43497); assay: T-type calcium channel block, whole cell patch clamp (α1G); assay type: cell-based; conditions: HEK cells stably expressing human α1G; mainly non-inactivated protocol; values above 10 μM represented as 10 μM, values below 0.30 μM represented as 0.30 μM
T1 construct: expressed in transfected cells; host or cells: HEK 293
Method: (§1) T-type calcium channel blocking activity was assayed in human embryonic kidney cells, HEK 293, stably transfected with the T-type calcium channel subunits. Briefly, cells were cultured in Dulbecco's modified eagle medium (DMEM) supplemented with 10% fetal bovine serum, 200 U/ml penicillin and 0.2 mg/ml streptomycin at 37° C. with 5% CO2. At 85% confluency cells were split with 0.25% trypsin/1 mM EDTA and plated at 10% confluency on glass coverslips. At 12 hours the medium was replaced and the cells stably transfected using a standard calcium phosphate protocol and the appropriate calcium channel cDNA's. Fresh DMEM was supplied and the cells transferred to 28° C./5% CO2. Cells were incubated for 1 to 2 days prior to whole cell recording.
(§2) Standard patch-clamp techniques were employed to identify blockers of T-type currents. Briefly, previously described HEK cell lines stably expressing human α1G, α1H and α1I T-type channels were used for all the recordings (passage #: 4-20, 37° C., 5% CO2). Whole cell patch clamp experiments were performed using an Axopatch 200B amplifier (Axon Instruments, Burlingame, Calif.) linked to a personal computer equipped with pCLAMP software. Data were analyzed using Clampfit (Axon Instruments) and SigmaPlot 4.0 (Jandel Scientific). To obtain T-type currents, plastic dishes containing semi-confluent cells were positioned on the stage of a ZEISS AXIOVERT S100 microscope after replacing the culture medium with external solution (see below). Whole-cell patches were obtained using pipettes (borosilicate glass with filament, O.D.: 1.5 mm, I.D.: 0.86 mm, 10 cm length), fabricated on a SUTTER P-97 puller with resistance values of ˜5 MΩ (see below for internal solution).
(§3) In the non-inactivating protocol, the holding potential is set at −110 mV and with a pre-pulse at −100 mV for 1 second prior to the test pulse at −40 mV for 50 ms. In the inactivation protocol, the pre-pulse is at approximately −85 mV for 1 second, which inactivates about 15% of the T-type channels.
(§4) Test compounds were dissolved in external solution, 0.1-0.01% DMSO. After 10 min rest, they were applied by gravity close to the cell using a WPI microfil tubing. The “non-inactivated” pre-pulse was used to examine the resting block of a compound. The “inactivated” protocol was employed to study voltage-dependent block. However, the initial data shown below were mainly obtained using the non-inactivated protocol only. . IC50 values are shown for various compounds of the invention in Table 4 for the drug of interest. Values are shown in μM and values above 10 μM are simply represented as 10 μM.

[2] = target: T2, human α1H T-type channels (Homo sapiens, UniProt O95180); assay: T-type calcium channel block, whole cell patch clamp (α1H); assay type: cell-based; conditions: HEK cells stably expressing human α1H; mainly non-inactivated protocol; values above 10 μM represented as 10 μM
T2 construct: expressed in transfected cells; host or cells: HEK 293
Method: as §1, §2, §3, §4

T2 sequence (O95180 whole entry): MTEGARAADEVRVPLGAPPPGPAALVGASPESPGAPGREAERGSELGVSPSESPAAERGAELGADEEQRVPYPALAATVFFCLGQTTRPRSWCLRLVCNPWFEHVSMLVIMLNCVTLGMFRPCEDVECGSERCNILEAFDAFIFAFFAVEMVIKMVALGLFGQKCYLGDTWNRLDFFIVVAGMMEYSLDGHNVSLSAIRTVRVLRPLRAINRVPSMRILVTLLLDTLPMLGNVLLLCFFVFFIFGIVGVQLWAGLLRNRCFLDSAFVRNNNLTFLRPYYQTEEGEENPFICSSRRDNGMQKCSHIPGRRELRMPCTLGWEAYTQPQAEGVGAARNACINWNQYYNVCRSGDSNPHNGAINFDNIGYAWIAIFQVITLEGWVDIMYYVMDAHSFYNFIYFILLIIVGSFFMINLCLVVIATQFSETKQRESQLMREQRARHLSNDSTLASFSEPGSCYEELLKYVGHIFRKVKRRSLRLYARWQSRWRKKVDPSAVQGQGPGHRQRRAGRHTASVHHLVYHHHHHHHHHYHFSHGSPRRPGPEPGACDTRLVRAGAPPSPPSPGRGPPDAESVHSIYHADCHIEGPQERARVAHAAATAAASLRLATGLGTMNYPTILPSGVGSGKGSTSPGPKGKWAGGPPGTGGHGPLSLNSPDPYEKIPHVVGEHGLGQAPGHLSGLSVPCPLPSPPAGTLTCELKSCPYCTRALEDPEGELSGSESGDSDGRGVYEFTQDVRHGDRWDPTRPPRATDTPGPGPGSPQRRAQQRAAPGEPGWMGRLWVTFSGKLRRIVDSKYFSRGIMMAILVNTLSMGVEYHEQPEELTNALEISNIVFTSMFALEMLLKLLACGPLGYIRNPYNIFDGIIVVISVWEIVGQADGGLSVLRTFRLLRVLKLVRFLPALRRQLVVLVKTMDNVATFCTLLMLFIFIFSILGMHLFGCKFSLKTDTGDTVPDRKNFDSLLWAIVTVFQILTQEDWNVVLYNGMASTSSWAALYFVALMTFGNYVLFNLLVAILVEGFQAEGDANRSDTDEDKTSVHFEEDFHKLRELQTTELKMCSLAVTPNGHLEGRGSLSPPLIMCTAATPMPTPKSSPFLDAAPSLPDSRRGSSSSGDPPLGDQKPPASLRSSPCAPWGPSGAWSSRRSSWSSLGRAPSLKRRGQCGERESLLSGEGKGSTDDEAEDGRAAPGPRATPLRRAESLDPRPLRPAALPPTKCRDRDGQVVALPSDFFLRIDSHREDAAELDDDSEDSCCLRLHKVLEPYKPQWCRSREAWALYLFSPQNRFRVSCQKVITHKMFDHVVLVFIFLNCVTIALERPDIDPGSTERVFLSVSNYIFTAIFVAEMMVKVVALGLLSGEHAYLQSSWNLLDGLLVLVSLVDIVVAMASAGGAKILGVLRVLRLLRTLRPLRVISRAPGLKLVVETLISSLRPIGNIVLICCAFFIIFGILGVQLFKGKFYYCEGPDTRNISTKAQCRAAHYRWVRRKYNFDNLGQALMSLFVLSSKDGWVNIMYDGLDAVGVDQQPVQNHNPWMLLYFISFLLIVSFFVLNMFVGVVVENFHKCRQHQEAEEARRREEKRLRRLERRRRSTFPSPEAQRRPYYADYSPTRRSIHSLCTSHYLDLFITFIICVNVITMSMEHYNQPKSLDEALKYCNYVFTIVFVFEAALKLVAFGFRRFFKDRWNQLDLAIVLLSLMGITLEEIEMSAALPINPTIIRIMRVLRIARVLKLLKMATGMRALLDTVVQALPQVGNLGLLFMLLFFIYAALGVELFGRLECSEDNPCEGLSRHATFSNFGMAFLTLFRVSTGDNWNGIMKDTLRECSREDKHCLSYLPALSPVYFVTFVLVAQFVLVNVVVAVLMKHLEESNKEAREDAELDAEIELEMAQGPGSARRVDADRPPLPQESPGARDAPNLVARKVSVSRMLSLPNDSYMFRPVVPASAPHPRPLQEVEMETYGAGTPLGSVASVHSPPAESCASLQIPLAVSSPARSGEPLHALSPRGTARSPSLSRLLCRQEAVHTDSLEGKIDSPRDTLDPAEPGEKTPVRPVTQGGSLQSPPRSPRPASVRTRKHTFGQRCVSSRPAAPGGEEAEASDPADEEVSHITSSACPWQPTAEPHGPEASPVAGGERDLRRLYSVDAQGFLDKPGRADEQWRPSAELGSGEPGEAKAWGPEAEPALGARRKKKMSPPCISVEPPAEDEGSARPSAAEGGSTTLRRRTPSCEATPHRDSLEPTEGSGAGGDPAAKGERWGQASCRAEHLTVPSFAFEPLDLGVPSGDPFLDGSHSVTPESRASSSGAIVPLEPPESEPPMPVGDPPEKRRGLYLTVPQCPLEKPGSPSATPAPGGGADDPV
T1 sequence (O43497 whole entry): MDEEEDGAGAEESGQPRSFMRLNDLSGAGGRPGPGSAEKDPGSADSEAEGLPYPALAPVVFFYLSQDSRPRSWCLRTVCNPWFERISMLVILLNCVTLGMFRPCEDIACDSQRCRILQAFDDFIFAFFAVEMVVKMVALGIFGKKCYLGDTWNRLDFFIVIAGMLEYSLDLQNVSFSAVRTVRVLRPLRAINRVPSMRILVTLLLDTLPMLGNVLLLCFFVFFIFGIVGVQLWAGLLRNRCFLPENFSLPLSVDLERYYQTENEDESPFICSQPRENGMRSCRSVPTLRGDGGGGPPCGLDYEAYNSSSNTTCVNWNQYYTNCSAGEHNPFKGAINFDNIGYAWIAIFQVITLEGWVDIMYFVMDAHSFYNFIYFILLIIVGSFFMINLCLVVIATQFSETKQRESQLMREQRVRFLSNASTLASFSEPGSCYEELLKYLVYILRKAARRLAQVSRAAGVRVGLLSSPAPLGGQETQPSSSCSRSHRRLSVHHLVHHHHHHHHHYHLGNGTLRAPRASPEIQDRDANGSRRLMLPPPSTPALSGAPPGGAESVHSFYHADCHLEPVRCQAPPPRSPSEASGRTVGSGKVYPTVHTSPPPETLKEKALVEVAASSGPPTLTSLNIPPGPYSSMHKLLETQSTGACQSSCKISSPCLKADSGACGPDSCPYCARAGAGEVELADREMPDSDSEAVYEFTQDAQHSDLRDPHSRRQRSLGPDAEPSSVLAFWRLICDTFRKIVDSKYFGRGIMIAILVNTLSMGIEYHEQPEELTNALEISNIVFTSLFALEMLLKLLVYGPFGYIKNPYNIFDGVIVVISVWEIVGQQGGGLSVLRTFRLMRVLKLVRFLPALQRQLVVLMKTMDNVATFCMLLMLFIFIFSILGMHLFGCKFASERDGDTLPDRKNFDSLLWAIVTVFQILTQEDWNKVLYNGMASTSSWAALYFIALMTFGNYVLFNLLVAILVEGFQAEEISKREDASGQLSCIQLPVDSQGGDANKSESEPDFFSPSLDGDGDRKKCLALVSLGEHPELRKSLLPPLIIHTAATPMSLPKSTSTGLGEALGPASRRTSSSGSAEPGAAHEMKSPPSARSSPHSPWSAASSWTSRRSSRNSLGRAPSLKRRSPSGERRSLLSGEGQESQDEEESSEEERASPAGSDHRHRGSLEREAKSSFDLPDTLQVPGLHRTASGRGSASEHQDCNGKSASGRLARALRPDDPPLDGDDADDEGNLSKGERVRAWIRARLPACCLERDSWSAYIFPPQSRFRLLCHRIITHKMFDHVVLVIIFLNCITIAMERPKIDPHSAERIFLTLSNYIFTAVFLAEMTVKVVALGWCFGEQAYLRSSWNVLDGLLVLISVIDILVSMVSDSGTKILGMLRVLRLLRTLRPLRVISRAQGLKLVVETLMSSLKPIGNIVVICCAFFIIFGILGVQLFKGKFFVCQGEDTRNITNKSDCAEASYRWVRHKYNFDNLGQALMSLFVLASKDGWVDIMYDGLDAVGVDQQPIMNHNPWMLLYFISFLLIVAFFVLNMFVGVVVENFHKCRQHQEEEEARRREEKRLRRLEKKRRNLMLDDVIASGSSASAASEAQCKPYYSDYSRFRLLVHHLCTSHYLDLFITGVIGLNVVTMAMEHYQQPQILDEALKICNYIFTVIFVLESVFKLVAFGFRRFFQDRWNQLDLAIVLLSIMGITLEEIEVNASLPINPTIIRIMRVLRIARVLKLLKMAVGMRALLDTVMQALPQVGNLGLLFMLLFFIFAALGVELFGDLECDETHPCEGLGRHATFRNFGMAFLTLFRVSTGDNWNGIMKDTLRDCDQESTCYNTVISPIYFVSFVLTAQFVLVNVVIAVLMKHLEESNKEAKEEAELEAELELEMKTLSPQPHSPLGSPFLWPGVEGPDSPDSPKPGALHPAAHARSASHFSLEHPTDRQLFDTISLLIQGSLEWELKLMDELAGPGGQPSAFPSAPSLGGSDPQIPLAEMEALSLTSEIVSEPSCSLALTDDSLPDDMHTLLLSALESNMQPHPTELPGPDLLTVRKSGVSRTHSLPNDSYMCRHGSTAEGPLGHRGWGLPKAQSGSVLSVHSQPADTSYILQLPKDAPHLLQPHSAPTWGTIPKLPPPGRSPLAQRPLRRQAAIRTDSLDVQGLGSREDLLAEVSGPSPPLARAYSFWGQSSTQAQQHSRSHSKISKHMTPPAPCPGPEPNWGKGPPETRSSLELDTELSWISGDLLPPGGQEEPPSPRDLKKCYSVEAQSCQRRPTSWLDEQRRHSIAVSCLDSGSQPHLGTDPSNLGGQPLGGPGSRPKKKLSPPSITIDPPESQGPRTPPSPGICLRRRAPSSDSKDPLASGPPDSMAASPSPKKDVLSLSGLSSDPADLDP

| Compound | pIC50 [1] | pIC50 [2] |
| --- | --- | --- |
| Cc1ccc(-c2csc(NC(=O)C[C@H]3CC[C@@H](NC(=O)[C@@H]4C[C@@H](c5ccccc5)CN4)CC3)n2)cc1 [Compound 129, (2S,4S)-N-(cis-4-(2-oxo-2-(4-p-tolylthiazol-2-ylamino)ethyl)cyclohexyl)-4-phenylpyrrolidine-2-carboxamide] | 5.28 |  |
| NC1(C(=O)N[C@H]2CC[C@@H](CNC(=O)c3cc(C(F)(F)F)cc(C(F)(F)F)c3)CC2)CCCC1 [Compound 140, N-((cis-4-(1-aminocyclopentanecarboxamido)cyclohexyl)methyl)-3,5-bis(trifluoromethyl)benzamide] | 5.01 |  |
| N[C@H]1CC[C@@H](CC(=O)Nc2cc(C(F)(F)F)cc(C(F)(F)F)c2)CC1 [Compound 106, 2-(cis-4-aminocyclohexyl)-N-(3,5-bis(trifluoromethyl)phenyl)acetamide] | 5.21 |  |
| O=C(NC[C@H]1CC[C@@H](NCCNS(=O)(=O)C(F)(F)F)CC1)c1cc(F)cc(C(F)(F)F)c1 [Compound 156, 3-fluoro-5-(trifluoromethyl)-N-((cis-4-(2-(trifluoromethylsulfonamido)ethylamino)cyclohexyl)methyl)benzamide] | ≤ 5.00 |  |
| O=C(NC[C@H]1CC[C@@H](NC(=O)C2(c3ccccc3)CCNCC2)CC1)c1cc(C(F)(F)F)cc(C(F)(F)F)c1 [Compound 128, N-(cis-4-((3,5-bis(trifluoromethyl)benzamido)methyl)cyclohexyl)-4-phenylpiperidine-4-carboxamide] | 5.24 |  |
| NC1(C(=O)N[C@H]2CC[C@@H](CC(=O)Nc3cc(C(F)(F)F)cc(C(F)(F)F)c3)CC2)CC1 [Compound 149, 1-amino-N-(cis-4-(2-(3,5-bis(trifluoromethyl)phenylamino)-2-oxoethyl)cyclohexyl)cyclopropanecarboxamide] | 5.39 |  |
| COc1ccc(CN[C@H]2CC[C@@H](CC(=O)Nc3nc(-c4ccc(C)cc4)cs3)CC2)c(O)c1 [Compound 36, 2-(cis-4-(2-hydroxy-4-methoxybenzylamino)cyclohexyl)-N-(4-p-tolylthiazol-2-yl)acetamide] |  | ≤ 5.00 |
| Cc1ccc(-c2csc(NC(=O)C[C@H]3CC[C@@H](NC(=O)[C@@H]4C[C@H](c5ccccc5)CN4)CC3)n2)cc1 [Compound 130, (2S,4R)-N-(cis-4-(2-oxo-2-(4-p-tolylthiazol-2-ylamino)ethyl)cyclohexyl)-4-phenylpyrrolidine-2-carboxamide] | 5.39 |  |
| NC1(C(=O)N[C@H]2CC[C@@H](CC(=O)NCc3cccc(OC(F)(F)F)c3)CC2)CCCCC1 [Compound 109, 1-amino-N-(cis-4-(2-oxo-2-(3-(trifluoromethoxy)benzylamino)ethyl)cyclohexyl)cyclohexanecarboxamide] | ≤ 5.00 |  |
| NC1(C(=O)N[C@H]2CC[C@@H](CC(=O)Nc3cc(C(F)(F)F)cc(C(F)(F)F)c3)CC2)CCOCC1 [Compound 147, 4-amino-N-(cis-4-(2-(3,5-bis(trifluoromethyl)phenylamino)-2-oxoethyl)cyclohexyl)tetrahydro-2H-pyran-4-carboxamide] | 5.34 |  |
| O=C(C[C@H]1CC[C@@H](NC(=O)C2(O)CCNCC2)CC1)Nc1cc(C(F)(F)F)cc(C(F)(F)F)c1 [Compound 148, N-(cis-4-(2-(3,5-bis(trifluoromethyl)phenylamino)-2-oxoethyl)cyclohexyl)-4-hydroxypipendine-4-carboxamide] | 5.53 |  |
| O=C(NC[C@H]1CC[C@@H](N2CC(C(F)(F)F)(C(F)(F)F)OC2=O)CC1)c1cc(F)cc(C(F)(F)F)c1 [Compound 154, 3-fluoro-N-((cis-4-(2-oxo-5,5-bis(trifluoromethyl)oxazolidin-3-yl)cyclohexyl)methyl)-5-(trifluoromethyl)benzamide] |  | 5.21 |
| O=C(C[C@H]1CC[C@H](NC(=O)[C@H]2CCCN2)CC1)Nc1cc(C(F)(F)F)cc(C(F)(F)F)c1 [Compound 118, (R)-N-(trans-4-(2-(3,5-bis(trifluoromethyl)phenylamino)-2-oxoethyl)cyclohexyl)pyrrolidine-2-carboxamide] | 5.31 |  |
| Cc1ccc(-c2csc(NC(=O)C[C@H]3CC[C@@H](NCC(C)(C)NC(=O)OC(C)(C)C)CC3)n2)cc1 [Compound 38, tert-butyl 2-methyl-1-(cis-4-(2-oxo-2-(4-p-tolylthiazol-2-ylamino)ethyl)cyclohexylamino)propan-2-ylcarbamate] |  | 5.10 |
| NC1(C(=O)N[C@H]2CC[C@H](CNC(=O)c3cc(C(F)(F)F)cc(C(F)(F)F)c3)CC2)CCCC1 [Compound 142, N-((trans-4-(1-aminocyclopentanecarboxamido)cyclohexyl)methyl)-3,5-bis(trifluoromethyl)benzamide] | ≤ 5.00 |  |
| O=C(C[C@H]1CC[C@@H](NC(=O)C2CCNCC2)CC1)Nc1cc(C(F)(F)F)cc(C(F)(F)F)c1 [Compound 144, N-(cis-4-(2-(3,5-bis(trifluoromethyl)phenylamino)-2-oxoethyl)cyclohexyl)piperidine-4-carboxamide] | 5.42 |  |
| Cc1cccc(CN[C@H]2CC[C@H](CNC(=O)c3cc(C(F)(F)F)cc(C(F)(F)F)c3)CC2)c1O [Compound 28, N-((trans-4-(2-hydroxy-3-methylbenzylamino)cyclohexyl)methyl)-3,5-bis(trifluoromethyl)benzamide] |  | 5.65 |
| Cc1ccc(-c2csc(NC(=O)C[C@H]3CC[C@@H](NCC4(NC(=O)OC(C)(C)C)CCCC4)CC3)n2)cc1 [Compound 37] |  | 5.27 |
| O=C(C[C@H]1CC[C@@H](NC(=O)C2(c3ccccc3)CCNCC2)CC1)NCc1cccc(OC(F)(F)F)c1 [Compound 114, N-(cis-4-(2-oxo-2-(3-(trifluoromethoxy)benzylamino)ethyl)cyclohexyl)-4-phenylpiperidin-4-carboxamide] | ≤ 5.00 |  |
| Cc1cc(CN[C@H]2CC[C@@H](CNC(=O)c3cc(F)cc(C(F)(F)F)c3)CC2)cc(C)c1O [Compound 5, 3-fluoro-N-((cis-4-(4-hydroxy-3,5-dimethylbenzylamino)cyclohexyl)methyl)-5-(trifluoromethyl)benzamide] |  | 6.60 |
| Cc1ccc(-c2csc(NC(=O)C[C@H]3CC[C@@H](NC(=O)[C@H]4CC[C@@H](c5ccccc5)N4)CC3)n2)cc1 [Compound 138, (2R,5S)-N-(cis-4-(2-oxo-2-(4-p-tolylthiazol-2-ylamino)ethyl)cyclohexyl)-5-phenylpyrrolidine-2-carboxamide] | 5.31 |  |
| O=C(C[C@H]1CC[C@H](NC(=O)[C@@H]2CCCCN2)CC1)Nc1cc(C(F)(F)F)cc(C(F)(F)F)c1 [Compound 120, (S)-N-(trans-4-(2-(3,5-bis(trifluoromethyl)phenylamino)-2-oxoethyl)cyclohexyl)piperidine-2-carboxamide] | 5.35 |  |
| CC(C)(C)OC(=O)NC1(CN[C@H]2CC[C@@H](CNC(=O)c3cc(C(F)(F)F)cc(C(F)(F)F)c3)CC2)CCCC1 [Compound 6, tert-butyl 1-((cis-4-((3,5-bis(trifluoromethyl)benzamido)methyl)cyclohexylamino)methyl)cyclopentylcarbamate] |  | 6.55 |
| O=C(NC[C@H]1CC[C@H](NC(=O)C2(c3ccccc3)CCNCC2)CC1)c1cc(C(F)(F)F)cc(C(F)(F)F)c1 [Compound 136, N-(trans-4-((3,5-bis(trifluoromethyl)benzamido)methyl)cyclohexyl)-4-phenylpiperidine-4-carboxamide] | 5.42 |  |
| O=C(C[C@H]1CC[C@@H](NC(=O)[C@H]2C[C@H](O)CN2)CC1)Nc1cc(C(F)(F)F)cc(C(F)(F)F)c1 [Compound 145] | 5.12 |  |
| Cc1ccc(-c2csc(NC(=O)C[C@H]3CC[C@@H](NC(=O)[C@@H]4CC[C@H](c5ccccc5)N4)CC3)n2)cc1 [Compound 131] | 5.12 |  |
| O=C(NC[C@H]1CC[C@H](NCCNS(=O)(=O)C(F)(F)F)CC1)c1cc(C(F)(F)F)cc(C(F)(F)F)c1 [Compound 155, 3,5-bis(trifluoromethyl)-N-((trans-4-(2-(trifluoromethylsulfonamido)ethylamino)cyclohexyl)methyl)benzamide] | 5.58 |  |
| NC1(C(=O)N[C@H]2CC[C@@H](CNC(=O)c3cc(F)cc(C(F)(F)F)c3)CC2)CCCC1 [Compound 141, N-((cis-4-(1-aminocyclopentanecarboxamido)cyclohexyl)methyl)-3-fluoro-5-(trifluoromethyl)benzamide] | ≤ 5.00 |  |
